Measurements taken from patent US20230365546A1, “5-SUBSTITUTED INDOLE 3-AMIDE DERIVATIVES, PREPARATION METHOD AND USE THEREOF” (ORIGIANT PHARMACEUTICAL CO., LTD, priority 2020, published 2023).

What was measured:
Test in all cases: Kinase Profiler 10 μM panel
[1] = target: PI3 Kinase (p110a(E545K)/p85a)(h) (Homo sapiens (Human), UniProt P42336, E545K)
Description: (§1) In vitro kinase assays were conducted using Kinase Profiler services provided by Eurofins. The experimental method was as follows: the small molecule compound to be tested (0.001-10 μM), the protein kinase to be tested were incubated with a buffer containing substrate, 10 mM magnesium acetate, and [γ-^33P-ATP], the reaction was started by adding Mg\TPmix, after incubation for a period of time at room temperature, a 3% phosphate solution was added to the buffer to stop the reaction. Subsequently, 10 μL of the reaction mixture was quantitatively pipetted onto P30 filter paper, which was washed three times with 75 mM phosphate solution and then once with methanol. The P30 filter paper was air-dried and scintillation fluid was added for scintillation counting.

Abl (Q252H)(h) = Abl (Q252H)(h) (Homo sapiens (Human), UniProt P00519, Q252H)
Description: as §1

GCK(h) = GCK(h) (Homo sapiens (Human), UniProt Q12851)
Description: as §1

ALK(h) = ALK(h) (Homo sapiens (Human), UniProt Q9UM73)
Description: as §1

GRK2(h) = GRK2(h) (Homo sapiens (Human), UniProt P25098)
Description: as §1

ASK1(h) = ASK1(h) (Homo sapiens (Human), UniProt Q99683)
Description: as §1

Hck(h) activated = Hck(h) activated (Homo sapiens (Human), UniProt P08631)
Description: as §1

HIPK4(h) = HIPK4(h) (Homo sapiens (Human), UniProt Q8NE63)
Description: as §1

PKBγ(h) = PKBγ(h) (Homo sapiens (Human), UniProt Q9Y243)
Description: as §1

IKKa(h) = IKKa(h) (Homo sapiens (Human), UniProt O15111)
Description: as §1

PKD2(h) = PKD2(h) (Homo sapiens (Human), UniProt Q9BZL6)
Description: as §1

CaMKIIβ(h) = CaMKIIβ(h) (Homo sapiens (Human), UniProt Q13554)
Description: as §1

Plk3(h) = Plk3(h) (Homo sapiens (Human), UniProt Q9H4B4)
Description: as §1

CaMKIδ(h) = CaMKIδ(h) (Homo sapiens (Human), UniProt Q8IU85)
Description: as §1

CaMKK2(h) = CaMKK2(h) (Homo sapiens (Human), UniProt Q96RR4)
Description: as §1

PRKG2(h) = PRKG2(h) (Homo sapiens (Human), UniProt Q13237)
Description: as §1

MAK(h) = MAK(h) (Homo sapiens (Human), UniProt P20794)
Description: as §1

MAP4K4(h) = MAP4K4(h) (Homo sapiens (Human), UniProt O95819)
Description: as §1

Ron(h) = Ron(h) (Homo sapiens (Human), UniProt Q04912)
Description: as §1

MAPK2(h) = MAPK2(h) (Homo sapiens (Human), UniProt P28482)
Description: as §1

Rsk2(h) = Rsk2(h) (Homo sapiens (Human), UniProt P51812)
Description: as §1

CHK2(R145W)(h) = CHK2(R145W)(h) (Homo sapiens (Human), UniProt O96017, R145W)
Description: as §1

CK1(y) = tested on: CK1(y)
Description: as §1

CK1γ2(h) = CK1γ2(h) (Homo sapiens (Human), UniProt P78368)
Description: as §1

cKit(V654A)(h) = cKit(V654A)(h) (Homo sapiens (Human), UniProt P10721, V654A)
Description: as §1

SRPK2(h) = SRPK2(h) (Homo sapiens (Human), UniProt P78362)
Description: The experimental method was as follows: the small molecule compound to be tested (0.001-10 μM), the protein kinase to be tested were incubated with a buffer containing substrate, 10 mM magnesium acetate, and [γ-^33P-ATP], the reaction was started by adding Mg\TPmix, after incubation for a period of time at room temperature, a 3% phosphate solution was added to the buffer to stop the reaction. Subsequently, 10 μL of the reaction mixture was quantitatively pipetted onto P30 filter paper, which was washed three times with 75 mM phosphate solution and then once with methanol. The P30 filter paper was air-dried and scintillation fluid was added for scintillation counting.

mTOR(h) = mTOR(h) (Homo sapiens (Human), UniProt P42345)
Description: as §1

DNA-PK(h) = DNA-PK(h) (Homo sapiens (Human), UniProt P78527)
Description: as §1

DYRK3(h) = DYRK3(h) (Homo sapiens (Human), UniProt O43781)
Description: as §1

NEK3(h) = NEK3(h) (Homo sapiens (Human), UniProt P51956)
Description: as §1

TTBK1(h) = TTBK1(h) (Homo sapiens (Human), UniProt Q5TCY1)
Description: as §1

PAK2(h) = PAK2(h) (Homo sapiens (Human), UniProt Q13177)
Description: as §1

EphB2(h) = EphB2(h) (Homo sapiens (Human), UniProt P29323)
Description: as §1

Wee1B(h) = Wee1B(h) (Homo sapiens (Human), UniProt P0C1S8)
Sequence of Wee1B(h) (P0C1S8 whole entry): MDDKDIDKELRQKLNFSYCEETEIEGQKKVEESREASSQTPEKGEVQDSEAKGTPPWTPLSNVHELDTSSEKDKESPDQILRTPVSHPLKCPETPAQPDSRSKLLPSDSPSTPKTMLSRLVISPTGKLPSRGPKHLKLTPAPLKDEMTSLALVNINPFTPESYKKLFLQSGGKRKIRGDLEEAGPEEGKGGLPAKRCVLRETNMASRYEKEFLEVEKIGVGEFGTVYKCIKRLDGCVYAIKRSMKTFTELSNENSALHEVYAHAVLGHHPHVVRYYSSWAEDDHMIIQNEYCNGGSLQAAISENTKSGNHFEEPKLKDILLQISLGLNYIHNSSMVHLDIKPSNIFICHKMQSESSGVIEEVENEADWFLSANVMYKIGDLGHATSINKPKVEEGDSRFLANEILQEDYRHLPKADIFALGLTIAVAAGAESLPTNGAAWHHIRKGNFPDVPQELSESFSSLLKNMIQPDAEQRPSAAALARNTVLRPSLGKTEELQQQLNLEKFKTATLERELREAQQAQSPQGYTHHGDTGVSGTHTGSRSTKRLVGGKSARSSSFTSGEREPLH
Description: as §1

Sequence of cKit(V654A)(h) (P10721 26-976 V654A): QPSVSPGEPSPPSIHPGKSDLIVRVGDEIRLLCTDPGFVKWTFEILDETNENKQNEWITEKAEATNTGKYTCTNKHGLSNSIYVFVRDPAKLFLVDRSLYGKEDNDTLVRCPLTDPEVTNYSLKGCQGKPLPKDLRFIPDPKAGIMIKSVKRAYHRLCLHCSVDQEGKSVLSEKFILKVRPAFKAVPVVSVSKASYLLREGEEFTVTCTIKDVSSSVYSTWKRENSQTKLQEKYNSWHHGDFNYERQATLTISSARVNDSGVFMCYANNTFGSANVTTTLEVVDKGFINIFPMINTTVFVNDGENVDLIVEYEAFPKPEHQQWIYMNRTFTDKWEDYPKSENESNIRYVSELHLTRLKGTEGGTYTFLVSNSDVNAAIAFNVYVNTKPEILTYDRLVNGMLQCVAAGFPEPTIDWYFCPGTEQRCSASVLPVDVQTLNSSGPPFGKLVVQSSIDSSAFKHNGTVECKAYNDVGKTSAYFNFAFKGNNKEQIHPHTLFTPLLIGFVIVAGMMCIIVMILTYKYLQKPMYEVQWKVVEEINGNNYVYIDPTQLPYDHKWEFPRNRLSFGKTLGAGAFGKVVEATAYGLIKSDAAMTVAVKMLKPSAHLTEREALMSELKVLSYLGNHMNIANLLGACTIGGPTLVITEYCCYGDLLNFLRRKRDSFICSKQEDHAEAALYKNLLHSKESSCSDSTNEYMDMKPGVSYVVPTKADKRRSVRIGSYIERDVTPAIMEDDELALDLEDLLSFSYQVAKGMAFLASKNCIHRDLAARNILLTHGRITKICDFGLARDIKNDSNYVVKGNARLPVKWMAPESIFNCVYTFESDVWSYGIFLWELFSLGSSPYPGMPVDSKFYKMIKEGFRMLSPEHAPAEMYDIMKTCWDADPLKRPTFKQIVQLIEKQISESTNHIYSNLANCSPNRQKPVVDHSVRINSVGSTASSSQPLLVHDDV
Sequence of TTBK1(h) (Q5TCY1 whole entry): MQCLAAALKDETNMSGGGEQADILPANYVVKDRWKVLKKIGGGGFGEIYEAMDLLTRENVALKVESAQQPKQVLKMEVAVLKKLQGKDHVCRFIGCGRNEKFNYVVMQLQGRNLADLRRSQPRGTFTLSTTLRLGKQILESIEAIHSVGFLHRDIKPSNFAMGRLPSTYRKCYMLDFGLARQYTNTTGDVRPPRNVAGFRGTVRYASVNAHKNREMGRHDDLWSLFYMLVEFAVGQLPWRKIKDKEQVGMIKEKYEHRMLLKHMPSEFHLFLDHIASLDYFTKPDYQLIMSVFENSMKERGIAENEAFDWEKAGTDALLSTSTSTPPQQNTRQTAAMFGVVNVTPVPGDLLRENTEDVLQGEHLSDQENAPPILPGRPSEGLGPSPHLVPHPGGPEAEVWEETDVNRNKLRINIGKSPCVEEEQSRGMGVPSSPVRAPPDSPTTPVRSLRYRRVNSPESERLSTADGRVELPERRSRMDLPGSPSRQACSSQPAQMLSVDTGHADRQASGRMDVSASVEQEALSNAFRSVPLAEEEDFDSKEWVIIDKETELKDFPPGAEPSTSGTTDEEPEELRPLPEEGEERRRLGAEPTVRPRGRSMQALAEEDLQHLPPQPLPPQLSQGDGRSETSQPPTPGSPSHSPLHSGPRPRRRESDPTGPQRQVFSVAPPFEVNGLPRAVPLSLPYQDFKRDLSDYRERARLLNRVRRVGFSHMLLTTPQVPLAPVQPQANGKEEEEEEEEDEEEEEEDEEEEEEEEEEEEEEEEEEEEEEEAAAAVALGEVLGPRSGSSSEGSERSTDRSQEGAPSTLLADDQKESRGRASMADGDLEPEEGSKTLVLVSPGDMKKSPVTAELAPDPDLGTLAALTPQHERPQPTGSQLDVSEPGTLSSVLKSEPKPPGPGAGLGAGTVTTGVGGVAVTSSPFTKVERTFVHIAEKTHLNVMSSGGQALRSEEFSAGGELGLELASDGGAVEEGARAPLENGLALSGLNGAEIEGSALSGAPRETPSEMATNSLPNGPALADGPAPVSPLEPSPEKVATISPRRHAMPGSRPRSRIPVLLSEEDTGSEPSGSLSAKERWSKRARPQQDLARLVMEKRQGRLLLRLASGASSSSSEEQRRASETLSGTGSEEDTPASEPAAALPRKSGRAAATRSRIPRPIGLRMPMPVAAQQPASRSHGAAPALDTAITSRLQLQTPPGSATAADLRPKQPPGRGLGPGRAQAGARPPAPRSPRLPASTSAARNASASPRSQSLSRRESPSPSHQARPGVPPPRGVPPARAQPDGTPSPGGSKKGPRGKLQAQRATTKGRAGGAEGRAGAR
Sequence of NEK3(h) (P51956 whole entry): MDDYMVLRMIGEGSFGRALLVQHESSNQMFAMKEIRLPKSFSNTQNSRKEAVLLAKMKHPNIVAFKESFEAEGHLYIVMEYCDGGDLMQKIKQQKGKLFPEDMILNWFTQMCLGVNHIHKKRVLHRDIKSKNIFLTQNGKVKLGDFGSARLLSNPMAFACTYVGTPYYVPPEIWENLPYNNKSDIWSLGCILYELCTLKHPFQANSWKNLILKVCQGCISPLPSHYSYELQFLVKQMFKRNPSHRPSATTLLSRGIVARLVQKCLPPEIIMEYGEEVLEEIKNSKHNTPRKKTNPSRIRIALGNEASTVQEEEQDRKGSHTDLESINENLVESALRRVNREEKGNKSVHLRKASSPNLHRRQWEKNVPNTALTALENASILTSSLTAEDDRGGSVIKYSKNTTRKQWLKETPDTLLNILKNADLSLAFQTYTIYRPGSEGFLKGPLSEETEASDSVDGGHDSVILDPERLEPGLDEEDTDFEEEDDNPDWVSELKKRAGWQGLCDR
Sequence of PRKG2(h) (Q13237 whole entry): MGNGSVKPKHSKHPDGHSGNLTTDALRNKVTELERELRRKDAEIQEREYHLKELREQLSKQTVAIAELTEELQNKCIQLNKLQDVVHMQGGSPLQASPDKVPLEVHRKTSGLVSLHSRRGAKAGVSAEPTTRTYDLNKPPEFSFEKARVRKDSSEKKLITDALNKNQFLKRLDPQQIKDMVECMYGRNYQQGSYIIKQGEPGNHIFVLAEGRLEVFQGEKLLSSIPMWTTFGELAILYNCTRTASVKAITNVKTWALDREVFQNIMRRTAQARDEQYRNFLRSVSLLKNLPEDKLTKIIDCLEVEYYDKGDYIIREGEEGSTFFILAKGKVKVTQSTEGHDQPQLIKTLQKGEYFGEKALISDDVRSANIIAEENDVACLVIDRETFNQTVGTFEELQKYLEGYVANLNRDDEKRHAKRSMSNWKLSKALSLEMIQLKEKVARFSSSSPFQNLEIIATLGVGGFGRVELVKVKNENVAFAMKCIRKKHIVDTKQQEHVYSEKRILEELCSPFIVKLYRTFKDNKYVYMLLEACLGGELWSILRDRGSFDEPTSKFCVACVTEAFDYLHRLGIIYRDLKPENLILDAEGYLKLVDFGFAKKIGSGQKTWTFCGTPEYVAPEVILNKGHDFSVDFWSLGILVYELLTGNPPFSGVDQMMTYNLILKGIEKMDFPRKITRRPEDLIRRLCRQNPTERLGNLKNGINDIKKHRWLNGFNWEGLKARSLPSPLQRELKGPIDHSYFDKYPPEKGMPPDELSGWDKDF
Sequence of DYRK3(h) (O43781 whole entry): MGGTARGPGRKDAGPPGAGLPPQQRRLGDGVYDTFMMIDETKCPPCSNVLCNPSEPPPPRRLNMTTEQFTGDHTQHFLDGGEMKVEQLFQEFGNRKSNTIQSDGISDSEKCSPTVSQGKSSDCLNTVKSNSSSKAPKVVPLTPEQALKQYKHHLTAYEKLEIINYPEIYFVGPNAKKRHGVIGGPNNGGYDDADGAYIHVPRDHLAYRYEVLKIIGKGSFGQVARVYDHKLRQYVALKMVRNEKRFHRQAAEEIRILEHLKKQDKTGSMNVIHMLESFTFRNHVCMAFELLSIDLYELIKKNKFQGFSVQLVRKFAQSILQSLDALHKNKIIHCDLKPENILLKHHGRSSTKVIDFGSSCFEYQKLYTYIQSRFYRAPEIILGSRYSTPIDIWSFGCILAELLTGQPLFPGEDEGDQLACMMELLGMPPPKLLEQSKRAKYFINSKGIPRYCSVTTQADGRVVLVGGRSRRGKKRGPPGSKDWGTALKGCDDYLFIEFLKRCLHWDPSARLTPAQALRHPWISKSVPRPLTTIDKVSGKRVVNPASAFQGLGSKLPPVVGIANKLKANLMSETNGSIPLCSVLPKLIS
Sequence of MAPK2(h) (P28482 whole entry): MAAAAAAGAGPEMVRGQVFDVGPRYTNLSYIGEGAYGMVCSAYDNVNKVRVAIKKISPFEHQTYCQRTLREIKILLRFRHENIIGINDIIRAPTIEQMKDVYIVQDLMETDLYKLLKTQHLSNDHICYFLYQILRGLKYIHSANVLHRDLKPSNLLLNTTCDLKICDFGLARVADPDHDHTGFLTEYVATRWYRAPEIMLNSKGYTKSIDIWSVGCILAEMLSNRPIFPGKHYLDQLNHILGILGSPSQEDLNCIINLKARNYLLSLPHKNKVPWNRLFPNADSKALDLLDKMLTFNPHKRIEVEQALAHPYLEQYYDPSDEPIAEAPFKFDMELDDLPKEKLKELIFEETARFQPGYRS

Molecule `C[C@H](NC(=O)c1c[nH]c2ccc(-c3ccc4nc(NC(=O)C5CC5)sc4c3)cc12)c1cccc(F)c1` [Compound 34, (S)-5-(2-(cyclopropanecarboxamido)benzo[d]thiazol-6-yl)-N-(1-(3-fluorophenyl)ethyl)-1H-indole-3-carboxamide] has an Inhibition ratio [1] of 32%, an Inhibition ratio (Abl (Q252H)(h)) of 97% and an Inhibition ratio (GCK(h)) of 62%. For the same molecule, the Inhibition ratio (ALK(h)) was 48%, the Inhibition ratio (GRK2(h)) was −1% and the Inhibition ratio (ASK1(h)) was 12%. It also gave an Inhibition ratio (Hck(h) activated) of 26%, an Inhibition ratio (HIPK4(h)) of 95% and an Inhibition ratio (PKBγ(h)) of 11%. The Inhibition ratio (IKKa(h); IKKa(h)) was 5%, the Inhibition ratio (PKD2(h)) was 46% and the Inhibition ratio (CaMKIIβ(h)) was 21%. For the same molecule, the Inhibition ratio (Plk3(h)) was 9%, the Inhibition ratio (CaMKIδ(h)) was 22% and the Inhibition ratio (CaMKK2(h)) was 34%. The Inhibition ratio (PRKG2(h)) was 3%, the Inhibition ratio (MAK(h)) was 2% and the Inhibition ratio (MAP4K4(h)) was 98%. It also gave an Inhibition ratio (Ron(h)) of 44%, an Inhibition ratio (MAPK2(h)) of 11% and an Inhibition ratio (Rsk2(h)) of 1%. The Inhibition ratio (CHK2(R145W)(h)) was 37%, the Inhibition ratio (CK1(y)) was 25% and the Inhibition ratio (CK1γ2(h)) was 9%. The Inhibition ratio (cKit(V654A)(h)) was −1%, the Inhibition ratio (SRPK2(h)) was 17% and the Inhibition ratio (mTOR(h)) was −7%. The Inhibition ratio (DNA-PK(h)) was 24%, the Inhibition ratio (DYRK3(h)) was 48% and the Inhibition ratio (NEK3(h)) was 10%. For the same molecule, the Inhibition ratio (TTBK1(h)) was 4%, the Inhibition ratio (PAK2(h)) was 19% and the Inhibition ratio (EphB2(h)) was 42%. The Inhibition ratio (Wee1B(h)) was −2%.

With `C[C@H](NC(=O)c1cn(C)c2ccc(-c3ccn4nc(NC(=O)C5CC5)nc4c3)cc12)c1cccc(F)c1` [Compound 94, (S)-5-(2-(cyclopropanecarboxamido)-[1,2,4]triazolo[1,5-a]pyridin-7-yl)-N-(1-(3-fluorophenyl)ethyl)-1-methyl-1H-indole-3-carboxamide] the Inhibition ratio/% [1] was 33%, the Inhibition ratio/% (Abl (Q252H)(h)) was 29% and the Inhibition ratio/% (GCK(h)) was −6%. The Inhibition ratio/% (ALK(h)) was −7%, the Inhibition ratio/% (GRK2(h)) was 53% and the Inhibition ratio/% (ASK1(h)) was 38%. The Inhibition ratio/% (Hck(h) activated) was −12%, the Inhibition ratio/% (HIPK4(h)) was 68% and the Inhibition ratio/% (PKBγ(h)) was 31%. It also gave an Inhibition ratio/% (IKKa(h); IKKα(h)) of 29%, an Inhibition ratio/% (PKD2(h)) of 9% and an Inhibition ratio/% (CaMKIIβ(h)) of 78%. The Inhibition ratio/% (Plk3(h)) was 12%, the Inhibition ratio/% (CaMKIδ(h)) was 26% and the Inhibition ratio/% (CaMKK2(h)) was 63%. For the same molecule, the Inhibition ratio/% (PRKG2(h)) was −9%, the Inhibition ratio/% (MAK(h)) was 45% and the Inhibition ratio/% (MAP4K4(h)) was −3%. The Inhibition ratio/% (Ron(h)) was 17%, the Inhibition ratio/% (MAPK2(h)) was 40% and the Inhibition ratio/% (Rsk2(h)) was 4%. The Inhibition ratio/% (CHK2(R145W)(h)) was 69%, the Inhibition ratio/% (CK1(y)) was 30% and the Inhibition ratio/% (CK1γ2(h)) was 50%. For the same molecule, the Inhibition ratio/% (cKit(V654A)(h)) was 68%, the Inhibition ratio/% (SRPK2(h)) was −16% and the Inhibition ratio/% (mTOR(h)) was −11%. The Inhibition ratio/% (DNA-PK(h)) was 47%, the Inhibition ratio/% (DYRK3(h)) was 10% and the Inhibition ratio/% (NEK3(h)) was 14%. For the same molecule, the Inhibition ratio/% (TTBK1(h)) was 13%, the Inhibition ratio/% (PAK2(h)) was −14% and the Inhibition ratio/% (EphB2(h)) was 48%. It also gave an Inhibition ratio/% (Wee1B(h)) of −2%.
